Like-named read-outs stand apart in the source and are kept apart here.
Columns and labels:
[1] = system: breast cancer tumor specimens; test: ex vivo fresh tissue sections of breast cancer patient tumors, apoptosis; format: cell-based, human
Source text: Test ex vivo the sensitivity of BC samples to PU-H71.
Ex vivo sensitivity examination: Immediately following surgical removal of the mastectomy specimen the tissue is transported to the Tissue Procurement Services (TPS) area of the Pathology suite. Once the lesion is located, tissue is harvested under sterile conditions. The specimen size removed for evaluation is typically 5-10 mm×5-10 mm. Every effort is made to sample the most viable area. Distant from the lesion, a specimen of equivalent size is removed representative of normal breast epithelial tissue. Both specimens are placed in minimal essential media (MEM) with 1% penicillin/streptomycin. A small portion of the lesion and the entire piece of normal breast epithelial tissue undergo a “snap” freeze for future molecular evaluation by WB. The remaining portion of the lesion (mastectomy) is processed for pathological evaluation. For every lesion pathology provides IHC for receptor status, proliferation markers, epithelial markers and one hematoxylin/eosin (H&E) stained slide accompanied by 10 unstained to be further assessed for non-standard biomarkers (e.g. pAKT, BclxL, HSP90 and Hsp70).
From preliminary analyses we have learned that fresh tissue slicing provides a quick and more efficient ex vivo method for HSP90 inhibition evaluation than primary cell isolation. In addition, it preserves the cancer cells in the endogenous environment of the surrounding tissue. This is important since the interaction between stromal cells and tumor cells is known to play a major role in cancer growth and progression. In this method, the tissue (i.e. lesion) is placed in a plastic mold and embedded in 6% agarose. The agarose-embedded tissue is then mounted on the stage of the Vibratome that is submersed in a chilled reservoir (for tissue preservation) containing MEM with 1% penicillin/streptomycin. The tissue is then sliced using metal blades producing serial sections of the lesion that are 200 μm thick. Each section (minus the surrounding agarose-embedding media) is immediately placed in a 24-well tissue culture plate containing MEM with 1% penicillin/streptomycin. From a 5 mm×5 mm piece of tissue approximately 25 sections are produced. This allows for replicate analyses of tissue sections treated with a minimum of 4 doses of the HSP90 inhibitor and one with vehicle only. Replicates can be assayed by both IHC as well as viability assays (automatic plate reader or cytospin preparation) once tissue section undergoes enzymatic dissociation by brief exposure to dispase.
To date, forty-two specimens encompassing all BC subtypes have been acquired. Out of these, nine were of receptor status negative. […] Treatment of triple negative infiltrating ductal carcinoma (IDC) with PU-H71 attained, in a dose-dependent manner, apoptosis of both the primary tumors and lymph node metastases.

HSP90 = conditions: for IC50: read-out: IC50, binding to HSP90
Method: FIGS. 1A, 1B, 1C, 1D, and 1E. […] Lysate=control cell extract. FIG. 1B HSP90 from MDA-MB-468 extracts was isolated through sequential chemical- and immuno-purification steps. The amount of HSP90 in each pool was quantified by densitometry and values were normalized to an internal standard. […] Representative data of four separate repeats is presented (lower). Expression of HSP90 in the indicated cells was analyzed by Western blot (upper). […] Post-treatment cells were treated with 1 μM PU-FITC. Binding of PU-FITC to the cells was evaluated by flow cytometry and is represented as mean fluorescence intensity (MFI). TEG-FITC is shown as a non-specific binding control. CD45 vs. SSC gating was used to distinguish binding to blast or lymphocytes from the primary specimens. […] Cell viability was evaluated by annexin V/7-AAD staining 96 h post-treatment.
CD34+ cell isolation was performed using CD34 MicroBead Kit and the automated magnetic cell sorter autoMACS according to the manufacturer's instructions (Miltenyi Biotech, Auburn, CA). […] Cell viability was analyzed by flow cytometry (BD Biosciences). […] Cells were stained with CD34-APC, CD38-PE-CY7 and CD45-APC-H7 antibodies (BD Biosciences) in FACS buffer (PBS, 0.05% FBS) at 4° C. for 30 min prior to Annexin V/7-AAD staining. […] At 4 h post treatment, cells were washed twice with FACS buffer. […] At 24 h post treatment, cells were washed twice, and stained with CD34-APC (or CD34-PECy7), CD38-PE-CY7 (or CD38-PE) and CD45-APC-H7 antibodies in FACS buffer at 4° C. for 30 min prior to 7-AAD staining. At 48 h, and 96 h post treatment, cells were stained with CD34-APC (or CD34-PECy7), CD38-PE-CY7 (or CD38-PE) and CD45-APC-H7 antibodies followed by Annexin V-V450 and 7-AAD staining to measure cell viability in blast, lymphocytes and CD34+ cell populations. […] Cells were collected, washed twice, stained for 7-AAD in FACS buffer, and analyzed by flow cytometry. HSP90 staining—Cells were fixed with fixation buffer (BD Biosciences) at 4° C. for 30 min, and permeabilized in Perm Buffer III (BD Biosciences) on ice for 30 min. Cells were stained with anti-HSP90 phycoerythrin conjugate (PE) (F-8 clone, Santa Cruz Biotechnologies; CA) for 60 minutes. Cells were washed and then analyzed by flow cytometry. Normal mouse IgG2a-PE was used as isotype control.

patient tumors = test: [^124I]-PU-H71 PET/CT in cancer patients, tumor exposure to PU-H71; conditions: for tumor AUC: two weeks; for tumor AUC0-48 h: paratracheal node
tumor HSP90 = conditions: for available HSP90 tumor sites occupied: 24 h
oncogenic HSP90 = test: PU-H71-FITC2 binding to pancreatic and breast cancer cell lines relative to HL-60 versus viability
[2] = several HER2+, triple-negative and ER+ breast cancers
[3] = HER2+ breast cancer patient, 10 mg/m^2 5 times a week
[4] = HER2+ breast cancer patient, 10 mg/m^2 once a week
[5] = HER2+ breast cancer patient, 10 mg/m^2 three times a week
[6] = pancreatic cancer patient, first tumor, 80 mg/m2 2×week
[7] = pancreatic cancer patient, left lung, 20 mg/m2 twice-week
[8] = pancreatic cancer patient, right hilum LN, 20 mg/m2 twice-week
[9] = pancreatic cancer patient, second tumor, 80 mg/m2 2×week

SMILES: CC(C)NCCCn1c(Sc2cc3c(cc2I)OCO3)nc2c(N)ncnc21 [PU-H71]
- effect on normal and benign tissue ([1]; 48 hour exposure): remained unaltered
- apoptosis ([1]; TNBC partly resistant group, 1-2.5 uM): ~50%
- apoptosis ([1]; TNBC sensitive group, 1 uM): 100%
- apoptosis ([1]; TNBC very sensitive group, 0.5 uM): 100%
- apoptosis ([1]; resistant, PT #14): no apoptosis noted at any of the tested concentrations
- average tumor concentration (patient tumors; [3]): 0.81 µM
- tumor AUC0-336 h (patient tumors; [3]): 189.8 μM-h
- average tumor concentration (patient tumors; [4]): 0.41 µM
- tumor AUC0-336 h (patient tumors; [4]): 54 μM-h
- average tumor concentration (patient tumors; [5]): 0.71 µM
- tumor AUC0-336 h (patient tumors; [5]): 140.8 μM-h
- average tumor concentration (patient tumors; HER2+ breast cancer patient, 10 mg/m^2 twice a week): 0.59 µM
- tumor AUC0-336 h (patient tumors; HER2+ breast cancer patient, 10 mg/m^2 twice a week for two weeks): 103 μM-h
- average tumor concentration (patient tumors; [6]): > 2.8 µM
- tumor exposure (patient tumors; [6]): above 760 uM-h
- average tumor concentration (patient tumors; [7]): 0.71 µM
- tumor AUC (patient tumors; [7]): 190 μM-h
- average tumor concentration (patient tumors; [8]): 1.57 µM
- tumor AUC (patient tumors; [8]): 499 μM-h
- average tumor concentration (patient tumors; [9]): > 6.3 µM
- tumor exposure (patient tumors; [9]): > 1998 uM-h
- tumor AUC0-48 h (patient tumors; 10 mg/m^2, estimated from [^124I]-PU-H71 PET): 24.9 μM-h
- tumor AUC0-48 h (patient tumors; co-injection with 10 mg/m2 PU-H71): 22.3 μM-h
- available HSP90 tumor sites occupied (tumor HSP90; 5 mg/kg): 12.1%
- available HSP90 tumor sites occupied (tumor HSP90; 25 mg/kg): 57.7%
- available HSP90 tumor sites occupied (tumor HSP90; 50 mg/kg): 88.7%
- available HSP90 tumor sites occupied (tumor HSP90; 75 mg/kg): 92.7%
- BMAX, maximum HSP90 per gram of tumor (tumor HSP90; 24 h post-injection, one gram of tumor): 160.7×10^−3 nmols
- BMAX as HSP90 molecules per gram of tumor (tumor HSP90; one gram of tumor): 960×10^11 HSP90 molecules
- sensitivity of HL-60 leukemia cells (oncogenic HSP90): resistant

From US12616759B2, “Uses of labeled HSP90 inhibitors” (Sloan-Kettering Institute for Cancer Research, priority 2011, dated 2026)
